US4017611A, “Control of insects with 3-hydroxymethacrylic acid methyl ester dimethylthionophosphate” (priority 1970, dated 1977)
Read-outs that look alike come from different tables or passages of the source.

Test system: one day old houseflies (Musca domestica)
Assay: Ingestion test with one day old houseflies
Type: in vivo
Details: read-out: % flies killed; for mortality at 0.4 ppm: 0.4 ppm in 30% sugar water; for mortality at 0.8 ppm: 0.8 ppm in 30% sugar water; for mortality at 1.5 ppm: 1.5 ppm in 30% sugar water; for mortality at 3 ppm: 3 ppm in 30% sugar water; for mortality at 6 ppm: 6 ppm in 30% sugar water; for mortality at 12 ppm: 12 ppm in 30% sugar water; for mortality at 25 ppm: 25 ppm in 30% sugar water; for mortality at 50 ppm: 50 ppm in 30% sugar water; for mortality at 100 ppm: 100 ppm in 30% sugar water
Procedure: Dilution series were manufactured with water. As solvent for the test preparations and similarly as a nutrition agent for the flies, 30% sugar water was used which had been coloured with chlorantin light red (as an attractant). The dilutions were tested with one day old houseflies. The 1, 2 and 4 hour controls enabled the speed of action to be determined. By means of the 24 hour control the limit concentration (action strength) could also be determined.

For `COC(=O)C(C)=COP(=S)(OC)OC` [Compound I, 3-hydroxymethacrylic acid methyl ester dimethylthionophosphate], the mortality at 0.4 ppm (1 hour) was 0%, the mortality at 0.4 ppm (2 hours) was 0% and the mortality at 0.4 ppm (4 hours) was 0%. The mortality at 0.4 ppm (24 hours) was 0%, the mortality at 0.8 ppm (1 hour) was 0% and the mortality at 0.8 ppm (2 hours) was 0%. The mortality at 0.8 ppm (4 hours) was 0%, the mortality at 0.8 ppm (24 hours) was 0% and the mortality at 1.5 ppm (1 hour) was 0%. It also gave a mortality at 1.5 ppm (2 hours) of 0%, a mortality at 1.5 ppm (4 hours) of 0% and a mortality at 1.5 ppm (24 hours) of 10%. For the same molecule, the mortality at 3 ppm (1 hour) was 10%, the mortality at 3 ppm (2 hours) was 20% and the mortality at 3 ppm (4 hours) was 50%. It also gave a mortality at 3 ppm (24 hours) of 90%, a mortality at 6 ppm (1 hour) of 30% and a mortality at 6 ppm (2 hours) of 40%. It also gave a mortality at 6 ppm (4 hours) of 100%, a mortality at 6 ppm (24 hours) of 100% and a mortality at 12 ppm (1 hour) of 40%. The mortality at 12 ppm (2 hours) was 70%, the mortality at 12 ppm (4 hours) was 100% and the mortality at 12 ppm (24 hours) was 100%. It also gave a mortality at 25 ppm (1 hour) of 40%, a mortality at 25 ppm (2 hours) of 70% and a mortality at 25 ppm (4 hours) of 100%. For the same molecule, the mortality at 25 ppm (24 hours) was 100%, the mortality at 50 ppm (1 hour) was 60% and the mortality at 50 ppm (2 hours) was 90%. For the same molecule, the mortality at 50 ppm (4 hours) was 100%, the mortality at 50 ppm (24 hours) was 100% and the mortality at 100 ppm (1 hour) was 100%. For the same molecule, the mortality at 100 ppm (2 hours) was 100%, the mortality at 100 ppm (4 hours) was 100% and the mortality at 100 ppm (24 hours) was 100%.
